Laboratory results from patent US20030224978A1, “Compounds and methods for modulating apoptosis” (McGill University, priority 1996, published 2003).
Entries after “also recorded” stand apart in the source; their conditions may differ.

Tests used:
HMVEC = type: cell-based, human; conditions: 3 h
Experimental: (§1) N-Ac-CHAVC-NH2 (SEQ ID NO:10) and the control peptide N-Ac-CHGVC-NH2 (SEQ ID NO:20) were evaluated for possible cytotoxic effects on human microvascular endothelial (HMVEC; Clonetics), human umbilical vein endothelial (HUVEC; ATCC #CRL-1730), IAFp2 (human fibroblast cell line; Institute Armand-Frapier, Montreal, Quebec), WI-38 (human fibroblast cell line; ATCC #CCL-75), MDA-MB231 (human breast cancer cell line; ATCC #HTB-26), and PC-3 (human prostate cancer cell line; ATCC #CRL-1435) cells utilizing the MTT assay (Plumb et al., Cancer Res. 49:4435-4440, 1989). Neither of the peptides was cytotoxic at concentrations up to and including 100 μM. Similarly, neither of the peptides was capable of inhibiting the proliferation of the above cell lines at concentrations up to 100 μM, as judged by ^3H-thymidine incorporation assays.

WI-38 = type: cell-based, human; conditions: 3 h
Experimental: as §1

IAFp2 = type: cell-based, human; conditions: 3 h
Experimental: as §1

PC-3 = type: cell-based, human; conditions: 3 h
Experimental: as §1

HUVEC = type: cell-based, human; conditions: 3 h
Melanoma ME 115 cells = test: Disruption of melanoma cell adhesion, pan-cadherin immunostaining; type: cell-based, human; conditions: 500 μg/mL, 48 hours
Experimental: Melanoma ME 115 cells (kindly provided by Meenhard Herlyn, Wistar Institute, Philadelphia, Pa.) were plated on glass coverslips and cultured for 24 hours in 50% keratinocyte growth medium (Clonetics, San Diego, Calif.) and 50% L15. Fresh medium containing the cyclic peptides (final concentration 500 μg/mL media) N-Ac-CHAVC-NH2 (SEQ ID NO:10) or N-Ac-CHGVC-NH2 (SEQ ID NO:20) was then added. Following 24 hours of culture in the presence of the peptides, the medium was removed and fresh medium containing the peptides was added. The cells were fixed 24 hours later with cold methanol and stored in phosphate buffered saline (PBS).
Coverslips were blocked for 1 hour in 3% ovalbumin/PBS and incubated for a further 1 hour in the presence of rabbit pan-cadherin antibody (Sigma Chemical Co., St. Louis, Mo.) diluted 1:500. Primary and secondary antibodies were diluted in PBS containing 6% normal goat serum. Following incubation in the primary antibody, coverslips were washed 3 times for 5 minutes each in PBS and incubated for 1 hour in goat anti-rabbit immunoglobulin G conjugated to fluorescein (Kiekegard and Perry, South San Francisco, Calif.) diluted 1:100. Following a further wash in PBS (3×5 minutes) coverslips were mounted in Vectashield (Vector Labs, Burlingame, Calif.) and viewed with a Zeiss infinity corrected microscope.

NRK cells = test: Disruption of normal rat kidney (NRK) cell adhesion and E-cadherin immunostaining; type: cell-based; conditions: 1 mg/mL, 48 hours
Experimental: Within another such assay, the effect of a modulating agent on normal rat kidney (NRK) cells may be evaluated. According to a representative procedure, NRK cells (ATCC #1571-CRL) may be plated at 10-20,000 cells per 35 mm tissue culture flasks containing DMEM with 10% FCS and sub-cultured periodically (Laird et al., J. Cell Biol. 131:1193-1203, 1995). Cells may be harvested and replated in 35 mm tissue culture flasks containing 1 mm coverslips and incubated until 50-65% confluent (24-36 hours). At this time, coverslips may be transferred to a 24-well plate, washed once with fresh DMEM and exposed to modulating agent at a concentration of, for example, 1 mg/mL for 24 hours. Fresh modulating agent may then be added, and the cells left for an additional 24 hours. Cells may be fixed with 100% methanol for 10 minutes and then washed three times with PBS. Coverslips may be blocked for 1 hour in 2% BSA/PBS and incubated for a further 1 hour in the presence of mouse anti-E-cadherin antibody (Transduction Labs, 1:250 dilution). Primary and secondary antibodies may be diluted in 2% BSA/PBS. Following incubation in the primary antibody, coverslips may be washed three times for 5 minutes each in PBS and incubated for 1 hour with donkey anti-mouse antibody conjugated to fluorescein (diluted 1:200). Following further washes in PBS (3×5 min) coverslips can be mounted and viewed by confocal microscopy.
In the absence of modulating agent, NRK cells form characteristic tightly adherent monolayers with a cobblestone morphology in which cells display a polygonal shape. NRK cells that are treated with a modulating agent that disrupts E-cadherin mediated cell adhesion may assume a non-polygonal and elongated morphology (i.e., a fibroblast-like shape) within 48 hours of treatment with 1 mg/mL of modulating agent. Gaps appear in confluent cultures of such cells. In addition, 1 mg/mL of such a modulating agent reproducibly induces a readily apparent reduction in cell surface staining of E-cadherin, as judged by immunofluorescence microscopy (Laird et al., J. Cell Biol. 131:1193-1203, 1995), of at least 75% within 48 hours.
NRK cells (ATCC #1571-CRL) were plated at 10-20,000 cells per 35 mm tissue culture flasks containing DMEM with 10% FCS and sub-cultured periodically (Laird et al., J. Cell Biol. 131:1193-1203, 1995). Cells were harvested and replated in 35 mm tissue culture flasks containing […] coverslips and incubated until 50-65% confluent (24-36 hours). At this time, coverslips were transferred to a 24-well plate, washed once with fresh DMEM and exposed to cyclic peptide solutions (N-Ac-CHAVC-NH2 (SEQ ID NO:10) and N-Ac-CHGVC-NH2 (SEQ ID NO:20)) at a concentration of 1 mg/mL for 24 hours. Fresh peptide solutions were then added and the cells were left for an additional 24 hours. […]

Row | IC50 (HMVEC) | IC50 (IAFp2) | IC50 (PC-3) | SMILES | IC50 (WI-38) | IC50 (HUVEC) | cadherin staining in melanoma ME115 cells (Melanoma ME 115 cells) | E-cadherin expression in NRK cells (immunofluorescence) (NRK cells) | effect on NRK cell adhesion (NRK cells) | effect on melanoma cell adhesion (Melanoma ME 115 cells)
1 | > 100 µM | > 100 µM | > 100 µM | CC(=O)N[C@H]1CSSC[C@@H](C(N)=O)NC(=O)[C@H](C(C)C)NC(=O)CNC(=O)[C@H](Cc2c[nH]cn2)NC1=O [N-Ac-CHGVC-NH2, reference compound] | > 100 µM | > 100 µM | displayed cadherin staining all over the cell membrane | expressed E-cadherin | had no affect on cell adhesion | 
2 | > 100 µM | > 100 µM | > 100 µM | CC(=O)N[C@H]1CSSC[C@@H](C(N)=O)NC(=O)[C@H](C(C)C)NC(=O)[C@H](C)NC(=O)[C@H](Cc2c[nH]cn2)NC1=O [N-Ac-CHAVC-NH2, N-Ac-Cys-His-Ala-Val-Cys-NH2] | > 100 µM | > 100 µM | absence of cell membrane staining and the appearance of bright intracellular vesicular staining; also recorded: cadherin is localized in intracellular vesicles | greatly reduced levels of E-cadherin | disrupted NRK cell adhesion; also recorded: retract from one another | disrupts melanoma cell adhesion
